Measured values from the supplement of paper PMC11061612.

Assays:
[1] = system: 647-V (Bladder Carcinoma); experiment: Bliss excess, mean over the matrix (fraction); higher = more synergy
Outline: (§1)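 Cell lines grown in DMEM/F12 or RPMI with 10% FBS were plated in 1536-well plates and held 24 hours at 37°C, 5% CO2 before 72 hours of exposure to two-drug dose matrices, with DMSO typically at 0.2%. CellTiter-Glo 2.0 luminescence gave viability, which was converted to inhibition. Vehicle wells were set to 0 and blank wells to 1. Combination Emax is the second-highest inhibition in the matrix, and Bliss excess is the observed combination effect minus the expected EA + EB − EA·EB, where EA and EB are the single-agent effects.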

[2] = system: HOP-92 (Non-Small Cell Lung Carcinoma); experiment: as above
Outline: as §1

[3] = system: HCC-827 (Lung Adenocarcinoma); experiment: as above
Outline: as §1

[4] = system: HCC1143 (Breast Carcinoma); experiment: as above
Outline: as §1

[5] = system: MES-SA (Other Solid Carcinomas); experiment: as above
Outline: as §1

MCF7 (Breast Carcinoma) [6] = experiment: as above
Outline: as §1

[7] = system: RCC10RGB (Kidney Carcinoma); experiment: as above
Outline: as §1

[8] = system: SNU-61 (Colorectal Carcinoma); experiment: as above
Outline: as §1

[9] = system: NCI-H1688 (Small Cell Lung Carcinoma); experiment: as above
Outline: as §1

[10] = system: KG-1 (Acute Myeloid Leukemia); experiment: as above
Outline: as §1

[11] = system: ETK-1 (Biliary Tract Carcinoma); experiment: as above
Outline: as §1

[12] = system: JHH-6 (Hepatocellular Carcinoma); experiment: as above
Outline: as §1

[13] = system: SKN-3 (Head and Neck Carcinoma); experiment: as above
Outline: as §1

[14] = system: GDM-1 (Acute Myeloid Leukemia); experiment: as above
Outline: as §1

[15] = system: U-118-MG (Low Grade Glioma); experiment: as above
Outline: as §1

HuO9 (Osteosarcoma) [16] = experiment: as above
Outline: as §1

A172 (Glioblastoma) [17] = experiment: as above
Outline: as §1

[18] = system: EFM-192A (Breast Carcinoma); experiment: as above
Outline: as §1

[19] = system: PA-TU-8902 (Pancreatic Carcinoma); experiment: as above
Outline: as §1

[20] = system: TYK-nu (Ovarian Carcinoma); experiment: as above
Outline: as §1

[21] = system: 647-V (Bladder Carcinoma); experiment: combination Emax (second highest fraction inhibited in the dose matrix, 72 h); higher = more inhibition; extreme values may be limits of the assay
Outline: as §1

[22] = system: HOP-92 (Non-Small Cell Lung Carcinoma); experiment: as above
Outline: as §1

[23] = system: HCC-827 (Lung Adenocarcinoma); experiment: as above
Outline: as §1

[24] = system: HCC1143 (Breast Carcinoma); experiment: as above
Outline: as §1

[25] = system: MES-SA (Other Solid Carcinomas); experiment: as above
Outline: as §1

MCF7 (Breast Carcinoma) [26] = experiment: as above
Outline: as §1

[27] = system: RCC10RGB (Kidney Carcinoma); experiment: as above
Outline: as §1

[28] = system: SNU-61 (Colorectal Carcinoma); experiment: as above
Outline: as §1

[29] = system: NCI-H1688 (Small Cell Lung Carcinoma); experiment: as above
Outline: as §1

[30] = system: KG-1 (Acute Myeloid Leukemia); experiment: as above
Outline: as §1

[31] = system: ETK-1 (Biliary Tract Carcinoma); experiment: as above
Outline: as §1

[32] = system: JHH-6 (Hepatocellular Carcinoma); experiment: as above
Outline: as §1

[33] = system: SKN-3 (Head and Neck Carcinoma); experiment: as above
Outline: as §1

[34] = system: GDM-1 (Acute Myeloid Leukemia); experiment: as above
Outline: as §1

[35] = system: U-118-MG (Low Grade Glioma); experiment: as above
Outline: as §1

HuO9 (Osteosarcoma) [36] = experiment: as above
Outline: as §1

A172 (Glioblastoma) [37] = experiment: as above
Outline: as §1

[38] = system: EFM-192A (Breast Carcinoma); experiment: as above
Outline: as §1

[39] = system: PA-TU-8902 (Pancreatic Carcinoma); experiment: as above
Outline: as §1

[40] = system: TYK-nu (Ovarian Carcinoma); experiment: as above
Outline: as §1
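For Bliss excess, mean over the matrix in this document: after 72 h of two-drug dosing.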

Structure (SMILES) | Bliss excess [1] | Bliss excess [2] | Bliss excess [3] | Bliss excess [4] | Bliss excess [5] | Bliss excess (MCF7 (Breast Carcinoma) [6]) | Bliss excess [7] | Bliss excess [8] | Bliss excess [9] | Bliss excess [10] | Bliss excess [11] | Bliss excess [12] | Bliss excess [13] | Bliss excess [14] | Bliss excess [15] | Bliss excess (HuO9 (Osteosarcoma) [16]) | Bliss excess (A172 (Glioblastoma) [17]) | Bliss excess [18] | Bliss excess [19] | Bliss excess [20] | combination Emax [21] | combination Emax [22] | combination Emax [23] | combination Emax [24] | combination Emax [25] | combination Emax (MCF7 (Breast Carcinoma) [26]) | combination Emax [27] | combination Emax [28] | combination Emax [29] | combination Emax [30] | combination Emax [31] | combination Emax [32] | combination Emax [33] | combination Emax [34] | combination Emax [35] | combination Emax (HuO9 (Osteosarcoma) [36]) | combination Emax (A172 (Glioblastoma) [37]) | combination Emax [38] | combination Emax [39] | combination Emax [40]
COc1nnc2ccc(N3CCC(c4ccc(OCCN5CCN(C)C(=O)[C@H]5C)cc4)CC3)nn12 [AZD5153] + CN(CC[C@H](CSC1=CC=CC=C1)NC2=C(C=C(C=C2)S(=O)(=O)NC(=O)C3=CC=C(C=C3)N4CCC(CC4)[C@H](C5=CC=CC=C5C6=CC=C(C=C6)Cl)O)S(=O)(=O)C(F)(F)F)CCO [AZD4320] (first compound max 1 µM, 7x7, partner max 1 µM) | 0.0463 | 0.0252 | 0.0292 | 0.0577 | 0.0545 | -0.0031 | -0.0004 | -0.005 | -0.0021 | 0.0754 | 0.0015 | -0.0296 | -0.0093 | 0.0276 | 0.0051 | 0.028 | 0.037 | 0.0355 | 0.0058 | 0.0168 | 0.513 | 0.936 | 0.483 | 0.454 | 0.393 | 0.699 | 0.548 | 0.392 | 0.509 | 1 | 0.48 | 0.521 | 0.452 | 1 | 0.417 | 0.938 | 0.568 | 0.308 | 0.269 | 0.628
CC(=O)c1c(C)c2cnc(Nc3ccc(N4CCNCC4)cn3)nc2n(C2CCCC2)c1=O [Palbociclib] + CN(CC[C@H](CSC1=CC=CC=C1)NC2=C(C=C(C=C2)S(=O)(=O)NC(=O)C3=CC=C(C=C3)N4CCC(CC4)[C@H](C5=CC=CC=C5C6=CC=C(C=C6)Cl)O)S(=O)(=O)C(F)(F)F)CCO [AZD4320] (first compound max 10 µM, 7x7, partner max 1 µM) | -0.0393 | -0.0491 | -0.0307 | -0.0178 | -0.0374 | -0.0486 | -0.0344 | -0.0753 | -0.0438 | 0.0673 | -0.0826 | -0.0496 | -0.058 | -0.0087 | -0.0302 | 0.0272 | -0.115 | -0.041 | -0.085 | -0.0257 | 0.211 | 0.891 | 0.288 | 0.332 | 0.445 | 0.45 | 0.667 | 0.136 | 0.657 | 0.984 | 0.292 | 0.381 | 0.277 | 1 | 0.466 | 0.841 | 0.647 | 0.165 | 0.323 | 0.37
C[C@@H](c1ccc2nccn2c1)n1nnc2ncc(-c3cnn(C)c3)nc21 [Savolitinib] + CN(CC[C@H](CSC1=CC=CC=C1)NC2=C(C=C(C=C2)S(=O)(=O)NC(=O)C3=CC=C(C=C3)N4CCC(CC4)[C@H](C5=CC=CC=C5C6=CC=C(C=C6)Cl)O)S(=O)(=O)C(F)(F)F)CCO [AZD4320] (first compound max 1 µM, 7x7, partner max 1 µM) | -0.0378 | -0.002 | -0.0001 | 0.0021 | -0.0197 | -0.0156 | -0.048 | -0.0357 | 0.0359 | -0.0251 | -0.0216 | -0.0639 | -0.0338 | -0.0256 | -0.0222 | -0.0704 | -0.0551 | 0.0065 | -0.0909 | -0.03 | 0.15 | 0.888 | 0.236 | 0.268 | 0.152 | 0.162 | 0.33 | 0.183 | 0.538 | 0.873 | 0.181 | 0.0904 | 0.187 | 1 | 0.402 | 0.745 | 0.112 | 0.258 | 0.26 | 0.283
